Patent US20040077715A1, “Use of an isothiocyanate, a thiocyanate or a mixture thereof as depigmenting agent” (priority 2001, published 2004)

Experiments:
cultured melanocytes = test: Power to inhibit the synthesis of melanin with regard to cultured melanocytes; type: cell-based; conditions: for Effect on the synthesis of melanin (in words) / Inhibition of the synthesis of melanin: concentration of 0.00035%; for Inhibition of the synthesis of melanin: 8 independent tests
Protocol: These tests were carried out on different batches of cells during experiments which were independent and repeated (8 times).
The results are expressed in mg/ml of melanin in so far as the cells are inoculated at the same concentration.

[1] = tested on: Type-6 pigmented epidermis (reconstituted human skin); test: Power to inhibit the synthesis of melanin with regard to pigmented human skin reconstituted in culture; type: cell-based; conditions: daily for 5 days, then two further days
Protocol: Type-6 pigmented epidermis (corresponding to black skin), in a proportion of three samples per test, were treated daily for 5 days with a control cream with the following composition (as % by weight): [table] with kojic acid at a concentration of 3.5×10^−5 (w/w) and with sulforaphane at a concentration of 3.5×10^−6 (w/w) in the same cream acting as excipient. At the end of the treatment, the culture skin is left for a further two days and the melanin is extracted from the treated skin and from the control skin with a mixture of solvents and sodium hydroxide (Solvable® from Packard Bioscience B.V.) and the melanin extracted is quantified by colorimetry according to a method described previously (Chemical Characterization of Hair Melanins in Various Coat-Color Mutants of Mice; Hiroyuki Ozeki et al., J. Invest.

[2] = tested on: fungal tyrosinase (EC. 1.14.18.1); test: Measurement of the power to inhibit tyrosinase (L-Dopa oxidation to dopachrome, O.D. at 475 nm); type: biochemical; conditions: for Concentration which inhibits the enzymatic activity of tyrosinase by 50%: fungal tyrosinase, L-Dopa substrate, pH 6.5, 30° C.; for Times more active than hydroquinone in inhibiting tyrosinase: relative to hydroquinone
Protocol: The following reaction is used: colourless L-Dopa (L-3,4-dihydroxyphenylalanine, obtained from Sigma (ref. D-9628)) is oxidized to coloured dopachrome, which absorbs at 475 nm. This reaction is catalyzed by fungal tyrosinase (EC. 1.14.18.1, obtained from Sigma (ref. T-7755)). The kinetics of the reaction are recorded by the measurement of the optical density (O.D.) as a function of the time at 30° C.
The compositions of the various solutions used are as follows:
L-Dopa at 0.35% (w/v) in the pH 6.5 buffer solution.
The inhibiting molecules are dissolved directly in the pH 6.5 buffer, in 50% methanol (methanol/distilled water) or in pure methanol, depending upon their solubility.
The concentrations in weight by volume of the various solutions of inhibitors are: 0.2%, 0.1%, 0.05%, 0.025%, 0.0125%, 0.00625% and 0.00312%.
Tyrosinase at 0.010% (w/v) in the pH 6.5 buffer solution.
The amounts of these various solutions used during the tests are presented in Tables 1 and 2 for each reaction studied:
The action of tyrosinase is evaluated by the initial rate of the reaction measured on the O.D. recording.
The initial rates of reactions without inhibitors (concentration 0) and the rates at the various concentrations tested are plotted on a curve.
The inhibiting power of a molecule is defined as the concentration which reduces the action of tyrosinase by 50%.

[3] = tested on: pigmented skin of guinea pigs; test: Test of the depigmenting power on pigmented guinea pigs; conditions: glycerol-based cream comprising 5% of product, twice daily
Protocol: Guinea pigs with a pigmented skin, shaved beforehand, received twice daily, 5 days out of 7, during one to two months of treatment, applications of a glycerol-based cream comprising 5% of kojic acid (ref. Aldrich 22,046-9) or 5% of hydroquinone (ref. Aldrich H 1,790-2) or 5% of benzoyl isothiocyanate (ref. Aldrich 30,818-8) or 5% of synthetic sulforaphane prepared according to Example 3. These applications were carried out on circular regions with a diameter of 2 cm pinpointed by indelible marking using yellow ink.

SMILES | Effect on the synthesis of melanin (in words) (cultured melanocytes) | Inhibition of the synthesis of melanin (cultured melanocytes) | Concentration which inhibits the enzymatic activity of tyrosinase by 50% [2] | also measured
C[S+]([O-])CCCCN=C=S (centres unmarked) [Sulforaphane] | inhibit the synthesis of melanin | 26.22% | 0.103 % (weight/volume) | Inhibition of the synthesis of melanin (melatonin [sic]) ([1]; 3.5×10^−6 (w/w) in cream): 30%; Times more active than hydroquinone in inhibiting tyrosinase [2]: approximately 1.5 times
O=c1cc(CO)occ1O [Kojic acid, kojic acid, reference compound] | no longer have an effect | 1% |  | Inhibition of the synthesis of melanin (melatonin [sic]) ([1]; 3.5×10^−5 (w/w) in cream): 8%; Whitening of the skin ([3]; 5 days out of 7, after treating for 4 weeks): no effect
N#C[S-].[K+] [Potassium thiocyanate] |  |  | 0.20 % (weight/volume) | 
S=C=NC1CCCCC1 [Cyclohexyl isothiocyanate] |  |  | 0.104 % (weight/volume) | 
Oc1ccc(O)cc1 [Hydroquinone] | inhibit the synthesis of melanin | 42% | 0.154 % (weight/volume) | Cytotoxicity (cultured melanocytes; cultured melanocytes): excessively high cytotoxicity
N#CSCc1ccccc1 [Benzyl thiocyanate] |  |  | 0.25 % (weight/volume) | 
O=C(N=C=S)c1ccccc1 [Benzoyl isothiocyanate] | no longer have an effect | 9.5% | 0.0063 % (weight/volume) | Times more active than hydroquinone in inhibiting tyrosinase [2]: approximately 24 times; Desquamation of the skin at the application spots ([3]; 5 days out of 7): desquamation of the skin
CC(=O)N=C=S [Acetyl isothiocyanate] |  |  | 0.055 % (weight/volume) | 
S=C=NCc1ccccc1 [Benzyl isothiocyanate] |  |  | 0.0980 % (weight/volume) | 
